Values quoted from earlier work in patent US6797704B2, “Systemic delivery of compounds through non-invasive bladder administration” (The Johns Hopkins University, priority 2000, dated 2004).

B1: recombinant murine interleukin-12: cytokine co-injected with naked DNA in a literature lung tumor study (protein, UniProt P43431 23-215; P43432 23-335, looked up)
Interleukin-12 subunit alpha: RVIPVSGPARCLSQSRNLLKTTDDMVKTAREKLKHYSCTAEDIDHEDITRDQTSTLKTCLPLELHKNESCLATRETSSTTRGSCLPPQKTSLMMTLCLGSIYEDLKMYQTEFQAINAALQNHNHQQIILDKGMLVAIDELMQSLNHNGETLRQKPPVGEADPYRVKMKLCILLHAFSTRVVTINRVMGYLSSA
Interleukin-12 subunit beta: MWELEKDVYVVEVDWTPDAPGETVNLTCDTPEEDDITWTSDQRHGVIGSGKTLTITVKEFLDAGQYTCHKGGETLSHSHLLLHKKENGIWSTEILKNFKNKTFLKCEAPNYSGRFTCSWLVQRNMDLKFNIKSSSSSPDSRAVTCGMASLSAEKVTLDQRDYEKYSVSCQEDVTCPTAEETLPIELALEARQQNKYENYSTSFFIRDIIKPDPPKNLQMKPLKNSQVEVSWEYPDSWSTPHSYFSLKFFVRIQRKKEKMKETEEGCNQKGAFLVEKTSTEVQCKGGNVCVQAQDRYYNSSCSKWACVPCRVRS

Tests used:
[1] = men
murine lung tumors = details: co-injection with naked DNA; from more than 250

Molecule	systemic absorption following intravesical administration [1]	number of primary lung metastases (murine lung tumors)
COc1cccc2c1C(=O)c1c(O)c3c(c(O)c1C2=O)C[C@@](O)(C(=O)CO)C[C@@H]3O[C@H]1C[C@H](N)[C@H](O)[C@H](C)O1 [doxorubicin]	minimal	
B1		around 10
